Data taken from a compilation of properties of binary mixtures (doi:10.4028/www.scientific.net/amr.864-867.125).

Assay: xn = mol fraction of the nth substance listed
Details: 101 kPa

CCCC[n+]1ccn(C)c1.F[P-](F)(F)(F)(F)F + Cc1ccccc1
viscosity [mPa·s]
Details	x2 = 0.05	x2 = 0.1	x2 = 0.2	x2 = 0.3	x2 = 0.4
298.15 K	–	149.5	111.5	67.3	42.9
300.65 K	126.7	99.9	–	50.1	–
303.15 K	98	–	55.7	–	24.6
305.65 K	79	57.3	44.2	–	20.42
308.15 K	65.7	47	36.8	–	17.61
310.65 K	56	–	31.7	24	15.61
313.15 K	48.7	34.7	27.9	21.33	–
315.65 K	43.1	30.8	25.1	19.23	12.97
318.15 K	38.7	27.8	22.96	–	12.06
320.65 K	35.1	25.4	21.23	–	–
323.15 K	32.2	23.49	19.82	15.09	10.71
325.65 K	29.8	21.91	18.66	14.15	10.21
328.15 K	–	20.59	17.68	13.36	9.77
330.65 K	–	19.47	16.85	12.68	9.4
333.15 K	24.5	18.52	16.14	12.09	9.08
335.65 K	23.16	17.69	15.52	11.58	–
338.15 K	–	16.96	14.98	11.13	8.56
